One series addresses PARP1 (Homo sapiens, UniProt P09874). Description: PARP1 enzyme inhibitory assay. The conditions noted are these: Table 2, B and C series; mean of three experiments. The class given is biochemical.
Another series has as its system U251 cells. Briefly: In vitro antiproliferative assay (CCK-8). The class given is cell-based. The note with it: Homo sapiens, U-251; U251, without BRCA mutations; CCK-8, 72 h; mean of three. The protocol: (§1) The proliferation of cancer cells was tested by CCK-8 assay. Briefly, cells were seeded in 96-well plates at approximately 5 × 10^3 cells per well. The cells were treated with test compounds after 24 h of incubation. CCK-8 reagent ([…]) was added to each well after 72 h of incubation, and the cells were then incubated at 37°C for 4 h. The light absorbance at 450 nm was measured using an Opsys microplate reader (Dynex Technologies, Chantilly, VA, United States). Results are illustrated as percentage viability normalized to DMSO-treated control cells.

In a further series the test system is A549 cells. Briefly: In vitro antiproliferative assay (CCK-8). It is filed as cell-based. The conditions noted are these: Homo sapiens; A549, without BRCA mutations; CCK-8, 72 h; mean of three. As to the method: as §1
The next series deals with B16 cells. Briefly: In vitro antiproliferative assay (CCK-8). The class given is cell-based. The note with it: Mus musculus; B16, without BRCA mutations; CCK-8, 72 h; mean of three. The protocol: as §1
The test system of another series is HCC1937 cells. Briefly: In vitro antiproliferative assay (CCK-8). The class given is cell-based. The note with it: Homo sapiens; HCC1937, BRCA-mutated; CCK-8, 72 h; mean of three. As to the method: as §1
Another series relates to CH151 cells. Description: In vitro antiproliferative assay (CCK-8). The note with it: CH151, without BRCA mutations; CCK-8, 72 h; mean of three. The class given is cell-based. The protocol: as §1
The next series relates to Hela cells. Briefly: In vitro antiproliferative assay (CCK-8). The class given is cell-based. The note with it: Homo sapiens, without BRCA mutations, CCK-8, 72 h, mean of three. As to the method:
as §1

A further series concerns SW620 cells. Briefly: In vitro antiproliferative assay (CCK-8). It is filed as cell-based. The note with it: Homo sapiens, SW-620; SW620, without BRCA mutations; CCK-8, 72 h; mean of three. As to the method:
as §1

A further series concerns Raji cells. Description: In vitro antiproliferative assay (CCK-8). It is filed as cell-based. The note with it: Homo sapiens, without BRCA mutations, CCK-8, 72 h, mean of three. The protocol:
as §1

A further series relates to 8226 cells. Description: In vitro antiproliferative assay (CCK-8). The conditions noted are these: 8226, without BRCA mutations; CCK-8, 72 h; mean of three. It is filed as cell-based. The protocol: as §1
For a further series, the system named is SKOV3 cells. Briefly: In vitro antiproliferative assay (CCK-8). The class given is cell-based. The note with it: Homo sapiens, SK-OV-3; SKOV3, without BRCA mutations; CCK-8, 72 h; mean of three. As to the method:
as §1

The test system of another series is U87 cells. Description: In vitro antiproliferative assay (CCK-8). The conditions noted are these: Homo sapiens, U-87 MG; U87, without BRCA mutations; CCK-8, 72 h; mean of three. It is filed as cell-based. As to the method: as §1
The next series has as its system MDA-MB-231 cells. Description: In vitro antiproliferative assay (CCK-8). The class given is cell-based. The note with it: Homo sapiens; MDA-MB-231, without BRCA mutations; CCK-8, 72 h; mean of three. As to the method:
as §1

Another series has as its system Capan-1 cells. Description: In vitro antiproliferative assay (CCK-8). It is filed as cell-based. The conditions noted are these: Homo sapiens; Capan-1, BRCA-mutated; CCK-8, 72 h; mean of three. As to the method: as §1
Another series concerns MDA-MB-436 cells. Briefly: In vitro antiproliferative assay (CCK-8). The class given is cell-based. The note with it: Homo sapiens; MDA-MB-436, BRCA-mutated; CCK-8, 72 h; mean of three. The protocol: as §1
Series [1] relates to K562 cells. Briefly: In vitro antiproliferative assay (CCK-8). The class given is cell-based. The note with it: Homo sapiens; K562, without BRCA mutations; CCK-8, 72 h; mean of three. The protocol: as §1
For the next series, the system named is MCF-7 cells. Briefly: In vitro antiproliferative assay (CCK-8). The conditions noted are these: Homo sapiens, MCF7; MCF-7, without BRCA mutations; CCK-8, 72 h; mean of three. It is filed as cell-based. As to the method:
as §1

The subject of series [2] is K562 cells. Briefly: Cell cycle analysis (PI staining, flow cytometry). The class given is cell-based. The note with it: for effect on cell cycle (in words): K562, 24 h, C2 1.25–5.0 µM, olaparib and chlorambucil 2.5–10 µM. The protocol:
K562 and HCC1937 cells were incubated with different doses of molecule C2, olaparib, or chlorambucil for 24 h. After treatment, cells were collected and fixed with 70% pre-chilled ethanol in PBS and stored at −20°C overnight. The cells were then washed twice with PBS, incubated with 100 μg/ml RNase I (Solarbio, China) at 37°C for 1 h, and stained with propidium iodide (PI, 10 μg/ml, Solarbio, China) for 30 min, in the dark, at room temperature. Finally, the DNA content was measured using flow cytometry (FACSAria III, Becton Dickinson, United States). The data were analyzed and fitted using ModFit software.
In general terms: Flow cytometry measures light scatter and fluorescence of single cells or particles in a stream.

The test system of series [3] is K562 cells. Description: Cell apoptosis analysis (Annexin V-BV421/7-AAD, flow cytometry). The class given is cell-based. The note with it: 24 h, control .90%. The protocol:
K562 cells were treated with various concentrations of molecule C2, olaparib, or chlorambucil for 24 h. Cells were then harvested and washed twice with PBS and then resuspended with binding buffer (Becton Dickinson, United States). Cells were incubated with Annexin V-BV421 (Becton Dickinson, United States) and 7-AAD (Becton Dickinson, United States) for double labeling for 30 min, in the dark, at room temperature, followed by analysis using flow cytometry (FACSAria III, Becton Dickinson, United States). The data were analyzed using FlowJo v10 software.

On the set-up of series [4]: method as in Jackson and Chester, 2015. The conditions noted are these: ref Jackson and Chester, 2015; cited from earlier work.
Details of series [5]: method as in Gala et al., 2020. The note with it: in both aqueous and lipophilic solutions; ref Gala et al., 2020; cited from earlier work.

SMILES strings stand for the structures.

PARP1, sequence (P09874 whole entry): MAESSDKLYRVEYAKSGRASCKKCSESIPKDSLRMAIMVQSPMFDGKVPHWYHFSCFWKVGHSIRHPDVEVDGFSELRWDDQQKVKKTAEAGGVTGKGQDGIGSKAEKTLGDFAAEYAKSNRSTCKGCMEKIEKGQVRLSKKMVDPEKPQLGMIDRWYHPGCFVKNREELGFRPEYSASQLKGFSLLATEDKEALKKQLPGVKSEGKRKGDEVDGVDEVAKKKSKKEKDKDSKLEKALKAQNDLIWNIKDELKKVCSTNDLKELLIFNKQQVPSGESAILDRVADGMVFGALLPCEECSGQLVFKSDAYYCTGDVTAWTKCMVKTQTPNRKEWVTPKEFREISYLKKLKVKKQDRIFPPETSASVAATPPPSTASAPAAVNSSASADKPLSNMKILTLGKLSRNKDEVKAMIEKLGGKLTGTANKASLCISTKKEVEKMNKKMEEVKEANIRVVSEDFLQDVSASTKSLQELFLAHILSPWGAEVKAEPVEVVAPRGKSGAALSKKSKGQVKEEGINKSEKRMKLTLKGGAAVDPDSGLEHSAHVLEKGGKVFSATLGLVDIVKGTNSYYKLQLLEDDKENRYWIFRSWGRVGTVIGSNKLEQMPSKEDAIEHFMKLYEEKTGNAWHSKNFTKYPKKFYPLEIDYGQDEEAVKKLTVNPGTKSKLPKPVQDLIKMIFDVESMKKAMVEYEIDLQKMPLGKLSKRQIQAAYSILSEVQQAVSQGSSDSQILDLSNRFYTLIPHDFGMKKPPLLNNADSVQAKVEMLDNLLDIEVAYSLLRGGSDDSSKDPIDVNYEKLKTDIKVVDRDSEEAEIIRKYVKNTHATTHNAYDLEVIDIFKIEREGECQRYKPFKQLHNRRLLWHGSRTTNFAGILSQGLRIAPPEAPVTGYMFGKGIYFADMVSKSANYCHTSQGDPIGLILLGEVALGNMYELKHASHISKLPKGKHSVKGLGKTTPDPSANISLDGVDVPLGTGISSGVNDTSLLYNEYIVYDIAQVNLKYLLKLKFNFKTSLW

In general, IC50 refers to the concentration that gives 50% inhibition. Turning to `CCCCNNC(=O)c1cc(Cc2n[nH]c(=O)c3ccccc23)ccc1F` [B3, N′-butyl-2-fluoro-5-((4-oxo-3,4-dihydrophthalazin-1-yl)methyl)benzohydrazide], the IC50 at PARP1 was 0.0028 ± 0.0001 µM; with U251 cells it was > 100 µM; in the series with A549 cells it was > 100 µM; in the series on B16 cells, > 100 µM; in the series with HCC1937 cells, > 1 µM; in the series with CH151 cells, > 100 µM. In addition, the concentration for half-maximal inhibition (IC50) in the series on Hela cells, in the series on SW620 cells, in the series on Raji cells, in the series with 8226 cells, with SKOV3 cells and in the series on U87 cells was > 100 µM throughout. Moreover, the IC50 was > 100 µM in the series with MDA-MB-231 cells; > 1 µM in the series with Capan-1 cells; > 1 µM with MDA-MB-436 cells; > 20 µM in the series on K562 cells [1]; > 100 µM in the series on MCF-7 cells.
In the case of `O=C(c1ccc(N(CCCl)CCCl)cc1)N1CCN(C(=O)c2cc(Cc3n[nH]c(=O)c4ccccc34)ccc2F)CC1` [C1, 4-(3-(4-(4-(Bis(2-chloroethyl)amino)benzoyl)piperazine-1-carbonyl)-4-fluorobenzyl) phthalazin-1(2H)-one], the IC50 against PARP1 is 0.0012 ± 0.00011 µM; in the series with U251 cells it was > 100 µM; in the series on A549 cells it was 14.1 ± 1.1 µM; in the series on B16 cells, > 100 µM; in the series with HCC1937 cells, 0.36 ± 0.02 µM; in the series with CH151 cells it was > 100 µM. In addition, the IC50 with Hela cells, in the series with SW620 cells, in the series on Raji cells, in the series with 8226 cells, in the series with SKOV3 cells and in the series on U87 cells was > 100 µM each time. Besides, the IC50 in the series on MDA-MB-231 cells was > 100 µM; with Capan-1 cells, 0.105 ± 0.01 µM; in the series on MDA-MB-436 cells, 0.018 ± 0.002 µM; in the series on K562 cells [1], > 20 µM; in the series on MCF-7 cells it was > 100 µM.
`O=C(CCCc1ccc(N(CCCl)CCCl)cc1)N1CCN(C(=O)c2cc(Cc3n[nH]c(=O)c4ccccc34)ccc2F)CC1` [C2, 4-(3-(4-(4-(4-(Bis(2-chloroethyl)amino)phenyl)butanoyl)piperazine-1-carbonyl)-4-fluorobenzyl)phthalazin-1(2H)-one]: in the series with K562 cells [2], the “effect on cell cycle (in words)” value is listed as “increased cell number at the G2/M phase in a dose-dependent manner”. Further, the IC50 against PARP1 came out at 0.0009 ± 8e-05 µM; with U251 cells, 2.58 ± 0.14 µM; in the series with A549 cells it was 2.01 ± 0.13 µM; with B16 cells it was 11.7 ± 1.01 µM; in the series with HCC1937 cells it was 0.18 ± 0.01 µM; in the series with CH151 cells it was 2.77 ± 0.13 µM. In addition, the IC50 amounted to 1.65 ± 0.11 µM in the series with Hela cells; 6.41 ± 0.46 µM in the series on SW620 cells; 1.21 ± 0.02 µM with Raji cells; 3.62 ± 0.2 µM in the series on 8226 cells; 4.04 ± 0.25 µM in the series with SKOV3 cells; 2.86 ± 0.01 µM with U87 cells. The IC50 was found to be 6.33 ± 0.35 µM with MDA-MB-231 cells; 0.086 ± 0.006 µM with Capan-1 cells; 0.013 ± 0.001 µM in the series on MDA-MB-436 cells; 1.12 ± 0.08 µM in the series on K562 cells [1]; 2.28 ± 0.11 µM in the series on MCF-7 cells. For the same compound, the “percentage of apoptotic cells (apoptotic rate)” value (from here on “percentage of apoptotic cells”) in the series on K562 cells [3] (K562, 1 μM) came to 10.96%; in the series on K562 cells [3] (K562, 2 µM) it was 12.69%.
Regarding `O=C(O)CCCc1ccc(N(CCCl)CCCl)cc1` [Chlorambucil], the “proportion of cells in the G2/M phase” value in the series with K562 cells [2] (K562, 10 µM, 24 h) was found to be 61.60%. Further, in the series on K562 cells [2], the “effect on cell cycle (in words)” value is reported as “increased cell number at the G2/M phase in a dose-dependent manner”. Also, the 50% inhibitory concentration (IC50) is 21.1 ± 1.8 µM with U251 cells; 89.4 ± 3.4 µM in the series with A549 cells; > 100 µM in the series with B16 cells; > 1 µM in the series on HCC1937 cells; > 100 µM in the series on CH151 cells; > 100 µM in the series on Hela cells. For the same compound, the half-inhibitory concentration (IC50) is 10 ± 1.01 µM in the series on SW620 cells; 40.6 ± 3.6 µM with Raji cells; > 100 µM with 8226 cells; 3.98 ± 0.22 µM in the series on SKOV3 cells; > 100 µM in the series on U87 cells; 95.3 ± 5.7 µM in the series on MDA-MB-231 cells. The concentration for half-maximal inhibition (IC50) in the series with Capan-1 cells was > 1 µM; with MDA-MB-436 cells, > 1 µM; in the series on K562 cells [1], > 20 µM; with MCF-7 cells, 19.5 ± 1.7 µM. The “percentage of apoptotic cells” value worked out at 2.49% in the series on K562 cells [3] (K562, 5 μM) and 2.96% with K562 cells [3] (K562, 10 µM).
With `O=C(c1cc(Cc2n[nH]c(=O)c3ccccc23)ccc1F)N1CCN(C(=O)C2CC2)CC1` [Olaparib], in the series with K562 cells [2], the “effect on cell cycle (in words)” value was “did not exhibit any effects”. Moreover, the “pharmacokinetics profiles and bioavailability” value in [4] is “relatively poor”. The IC50 is > 100 µM in the series with U251 cells; 1.62 ± 0.11 µM with A549 cells; > 100 µM in the series on B16 cells; 0.24 ± 0.01 µM in the series with HCC1937 cells; 24.9 ± 1.5 µM in the series on CH151 cells; 11.6 ± 1.01 µM in the series on Hela cells. Moreover, the IC50 was 17.7 ± 1.2 µM in the series on SW620 cells; 4.4 ± 0.33 µM with Raji cells; 66.8 ± 5.5 µM in the series with 8226 cells; 12.8 ± 1.2 µM in the series with SKOV3 cells; 26 ± 1.2 µM in the series on U87 cells; 53.8 ± 3.6 µM in the series on MDA-MB-231 cells. Further, the half-maximal inhibitory concentration (IC50) was determined as 0.129 ± 0.011 µM in the series with Capan-1 cells, 0.047 ± 0.003 µM with MDA-MB-436 cells, 10.4 ± 0.72 µM in the series on K562 cells [1] and 30.6 ± 2.1 µM in the series on MCF-7 cells. For the same compound, the “percentage of apoptotic cells” value in the series with K562 cells [3] (K562, 5 μM) was determined as 1.53%; in the series with K562 cells [3] (K562, 10 µM), 1.91%. In addition, the solubility entry in series [5] is “low solubility”.

These data come from article PMC9868654, “Discovery of a potent olaparib–chlorambucil hybrid inhibitor of PARP1 for the treatment of cancer” (Frontiers in Pharmacology, 2023).
